Results on 13 compounds are retold here after ChEMBL document CHEMBL1201862, “PubChem BioAssay data set” (2004).

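The compound was tested at five concentrations on cells cultured in 96-well plates, with a 48-hour exposure period. GI50 marks 50% less growth.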 The source made the active and inactive calls. Rule as the data show it: active = GI50 up to about 1.1 µM and inactive = higher. A value given as a limit tells only on which side of the number the result lay.

Among the test systems are RPMI-8226; OVCAR-4; MDA-MB-435; SF-539; NCI/ADR-RES; MCF7; PC-3; SF-295; K562; EKVX; SN12C; NCI-H522; ACHN; M14; OVCAR-8; T47D; SK-OV-3; A498; Hs-578T.
Assay in all cases: NCI-60 cell line screen, 48 h

`O=C(c1ccc(Br)cc1)n1c2ccc(Br)cc2c2nc3ccccc3nc21`: the GI50 in the assay on RPMI-8226, in the assay with OVCAR-4, in the assay on MDA-MB-435, with SF-539, in the assay on NCI/ADR-RES and in the assay on MCF7 was > 100 µM (inactive) throughout. Besides, the GI50 in the assay with PC-3, in the assay with SF-295, in the assay with K562, in the assay with EKVX, in the assay on SN12C and in the assay with NCI-H522 was > 100 µM (inactive) throughout. Moreover, the GI50 with ACHN, in the assay on M14, with OVCAR-8 and with T47D was > 100 µM (inactive) each time.

Take `CCCCCCCCCCCCCCCCOCC(CC(F)(F)P(=O)(O)O)OC(C)=O` (configuration not stated): the GI50 in the assay on RPMI-8226, in the assay on SK-OV-3, in the assay on A498, in the assay with MDA-MB-435, with NCI/ADR-RES and in the assay on MCF7 was > 50 µM (inactive) each time. Besides, the GI50 with PC-3, with SF-295, in the assay on K562, in the assay on EKVX, with SN12C and with NCI-H522 was > 50 µM (inactive) each time. For the same compound, the GI50 with ACHN and in the assay on M14 was > 50 µM (inactive) each time.

On to `O=P1(c2ccccc2)C(c2ccccc2)CCC1c1ccccc1` (configuration not stated), for which the GI50 in the assay with Hs-578T was > 100 µM (inactive); in the assay on RPMI-8226, 22.1 µM (inactive); in the assay on SK-OV-3, 40.9 µM (inactive); in the assay with MDA-MB-435 it was 34.9 µM (inactive); in the assay on SF-539, > 100 µM (inactive); in the assay on MCF7, > 100 µM (inactive). The GI50 was 33.6 µM (inactive) in the assay on PC-3; 32.1 µM (inactive) in the assay with SF-295; 10.8 µM (inactive) with K562; 29.5 µM (inactive) in the assay with EKVX; 34.9 µM (inactive) in the assay with SN12C; 26.4 µM (inactive) in the assay on NCI-H522. In addition, the GI50 is 68.5 µM (inactive) in the assay on M14 and 91.4 µM (inactive) in the assay with OVCAR-8.

For the compound `COc1ccc2c(c1)/C(=C\c1c(C)nc3n1CCS3)C(=O)N2`, the GI50 in the assay on RPMI-8226 is 34.5 µM (inactive); in the assay on SK-OV-3 it was 19.7 µM (inactive); in the assay with A498 it was 17.8 µM (inactive); in the assay with MDA-MB-435, 3.12 µM (inactive); in the assay with SF-539 it was 18.3 µM (inactive); in the assay with NCI/ADR-RES, 26.8 µM (inactive). The GI50 in the assay on MCF7 was 27.6 µM (inactive); in the assay on PC-3, 16.3 µM (inactive); with SF-295 it was 16.4 µM (inactive); in the assay on K562, 10.3 µM (inactive); with EKVX, 34.5 µM (inactive); in the assay on SN12C, 26.5 µM (inactive). Further, the GI50 was 40.5 µM (inactive) with ACHN, 23 µM (inactive) in the assay on M14, 37 µM (inactive) in the assay with OVCAR-8 and 27.7 µM (inactive) in the assay on T47D.

For the compound `CC(C)(C)OC(=O)[C@@H]1CCC(=S)N1Cc1ccccc1`, the GI50 in the assay with RPMI-8226, in the assay on OVCAR-4, in the assay on SK-OV-3, with A498, in the assay with MDA-MB-435 and with SF-539 was > 100 µM (inactive) each time. For the same compound, the GI50 with NCI/ADR-RES was > 100 µM (inactive); in the assay on MCF7, > 100 µM (inactive); with PC-3, > 100 µM (inactive); in the assay on SF-295 it was > 100 µM (inactive); with K562, > 100 µM (inactive); with EKVX, 92 µM (inactive). The GI50 in the assay on SN12C, in the assay on NCI-H522, in the assay on ACHN, with M14 and in the assay on OVCAR-8 was > 100 µM (inactive) each time.

Turning to `CC12C3CC4C5CC(C(C53)[C@@H]1NCc1ccccc1)C42` (some centres not stated), the GI50 in the assay on RPMI-8226, with OVCAR-4, in the assay on SK-OV-3, in the assay with A498, in the assay with SF-539 and with SF-295 was > 100 µM (inactive) in each case. For the same compound, the GI50 in the assay with K562 is 62.7 µM (inactive); in the assay on EKVX, > 100 µM (inactive); in the assay on SN12C, > 100 µM (inactive); with NCI-H522 it was 36.2 µM (inactive); with ACHN it was > 100 µM (inactive); in the assay with M14 it was > 100 µM (inactive). Moreover, in the assay on OVCAR-8, the GI50 is > 100 µM (inactive).

With `CN(C)c1ccc(/C=C2\C[C@H]3[C@@H]4CCc5cc(OCCN6CCCC6)ccc5[C@H]4CC[C@]3(C)C2=O)cc1`, the GI50 in the assay on RPMI-8226 is 1.75 µM (inactive); in the assay on OVCAR-4, 1.63 µM (inactive); in the assay with SK-OV-3 it was 1.87 µM (inactive); in the assay on A498 it was 1.96 µM (inactive); in the assay on MDA-MB-435, 1.55 µM (inactive); with SF-539, 1.59 µM (inactive). For the same compound, the GI50 was 1.91 µM (inactive) in the assay with NCI/ADR-RES; 1.52 µM (inactive) with MCF7; 1.78 µM (inactive) in the assay on PC-3; 1.86 µM (inactive) with SF-295; 1.08 µM (active) with K562; 2.2 µM (inactive) in the assay on EKVX. In addition, the GI50 with SN12C was 1.62 µM (inactive); with ACHN it was 1.73 µM (inactive); in the assay with T47D, 1.77 µM (inactive).

For `Cc1cc(C)c2c(c1)Nc1ccccc1P2c1ccccc1` (configuration not stated), the GI50 in the assay with RPMI-8226 was 3.89 µM (inactive); with OVCAR-4, 26.9 µM (inactive); in the assay with SK-OV-3, > 100 µM (inactive); in the assay on SF-295, 20 µM (inactive); with K562, 24.5 µM (inactive); in the assay with EKVX it was 23.5 µM (inactive). For the same compound, the GI50 is 9.82 µM (inactive) in the assay on SN12C, > 10 µM (inactive) in the assay with ACHN, 36.8 µM (inactive) with M14 and 31.6 µM (inactive) in the assay with OVCAR-8.

For the compound `O=C1CC2(c3ccccc3)ON=C(c3ccccc3)N2c2ccccc2N1` (configuration not stated), the GI50 in the assay with RPMI-8226 was 63.4 µM (inactive); in the assay on OVCAR-4 it was > 100 µM (inactive); in the assay with SK-OV-3, 19.7 µM (inactive); with A498 it was 95.3 µM (inactive); in the assay on MDA-MB-435, 20 µM (inactive); with SF-539 it was > 100 µM (inactive). For the same compound, the GI50 was 35.1 µM (inactive) with NCI/ADR-RES; 55.7 µM (inactive) with MCF7; 30.5 µM (inactive) with PC-3; > 100 µM (inactive) in the assay on SF-295; 38.8 µM (inactive) in the assay with K562; 57.1 µM (inactive) with EKVX. Moreover, the GI50 was 52.7 µM (inactive) in the assay with SN12C; 41.6 µM (inactive) with NCI-H522; 61.8 µM (inactive) with ACHN; 60.4 µM (inactive) in the assay on M14; 77.1 µM (inactive) with OVCAR-8; 24.6 µM (inactive) with T47D.

Turning to `COC1=NN2C(OC)(c3ccccc3)c3c(-c4ccccc4)sc(-c4ccccc4)c3C2(c2ccccc2)S1` (configuration not stated), the GI50 in the assay on SK-OV-3, with A498, in the assay on SF-539, in the assay on SF-295, in the assay on K562 and in the assay with SN12C was > 100 µM (inactive) each time. The GI50 in the assay with NCI-H522 is > 100 µM (inactive); with ACHN, > 100 µM (inactive); in the assay with M14 it was > 10 µM (inactive); with OVCAR-8, > 100 µM (inactive).

On to `CN(C)c1n/c(=N/Cc2cccnc2)ss1`, for which the GI50 in the assay on RPMI-8226, in the assay on OVCAR-4, in the assay on SK-OV-3, in the assay with MDA-MB-435, in the assay on PC-3 and in the assay with SF-295 was > 10 µM (inactive) throughout. The GI50 with K562 was 1.12 µM (active); in the assay with EKVX it was > 10 µM (inactive); with SN12C, > 10 µM (inactive); with M14 it was > 10 µM (inactive); with OVCAR-8, > 10 µM (inactive); in the assay with T47D, > 10 µM (inactive).

For `O=C(N/N=C1\C(=O)Nc2c(Cl)cc(Cl)cc21)C(=O)Nc1cccc(C(F)(F)F)c1`, the GI50 is > 100 µM (inactive) in the assay with Hs-578T; > 100 µM (inactive) in the assay on OVCAR-4; > 100 µM (inactive) in the assay with SK-OV-3; > 100 µM (inactive) with A498; 45.5 µM (inactive) in the assay with MDA-MB-435; > 100 µM (inactive) in the assay on SF-539. For the same compound, the GI50 in the assay on NCI/ADR-RES, with MCF7, in the assay on PC-3, with SF-295, in the assay with EKVX and with SN12C was > 100 µM (inactive) each time. In addition, the GI50 in the assay with ACHN, with M14 and in the assay with OVCAR-8 was > 100 µM (inactive) in each case.

Take `[N-]=[N+]=NC1=NNC2(C(=O)N1)c1ccccc1-c1ccccc12`: the GI50 with Hs-578T was 27.6 µM (inactive); in the assay on OVCAR-4 it was > 100 µM (inactive); in the assay on SK-OV-3 it was > 100 µM (inactive); in the assay on A498, > 100 µM (inactive); in the assay with MDA-MB-435, 17.4 µM (inactive); in the assay on SF-539, > 100 µM (inactive). Moreover, the GI50 in the assay with NCI/ADR-RES is > 100 µM (inactive); in the assay with MCF7, 72.1 µM (inactive); in the assay with PC-3, > 100 µM (inactive); with SF-295, > 100 µM (inactive); in the assay on K562, > 100 µM (inactive); in the assay on EKVX, > 100 µM (inactive). In addition, the GI50 in the assay with SN12C, in the assay with NCI-H522, with ACHN, in the assay on M14 and with OVCAR-8 was > 100 µM (inactive) throughout.
